Assay results: US20260015322A1, “DELIVERY OF THERAPEUTIC ALKALOID COMPOUNDS” (priority 2022, published 2026)
Read-outs that look alike come from different tables or passages of the source. Marks after values point to notes of the source that are not given here.

What was measured:
[1] = Plasma Stability Assay (Example A2), mouse plasma; assay type: in vitro ADME; details: for Metabolite (%): mouse; for Prodrug (%): Mouse Plasma, 37° C., prodrug remaining
Procedure: (§1) Each test was carried out in duplicate for each time point; 0 min, 15 min, 30 min, 60 min, 120, 240 min. […]

[2] = Pharmacokinetics of 358, single IV 2 mg/kg, plasma and brain; assay type: in vivo, male C57BL/6 mice; details: 358 IV 2 mg/kg, mice
Procedure: Total fifteen male mice were used in this study with n=3 mice/time point with sparse sampling study design. Animals were administered through intravenous route with solution formulation of 358 at 2 mg/kg dose.
The extraction procedure for plasma/brain samples and the spiked plasma/brain calibration standards were identical (PMSF Stabilized Plasma and Brain used for Preparation of calibration standards):
(§2) A 20 μL of study sample plasma/brain or spiked plasma/brain calibration standard was added to individual pre-labeled micro-centrifuge tubes followed by 200 μL of internal standard prepared in acetonitrile (Rosuvastatin+Cetrizine, 50 ng/mL) was added except for blank, where 200 μL of acetonitrile was added. Samples were vortexed for 5 minutes. Samples were centrifuged for 10 minutes at a speed of 4000 rpm at 4° C. Following centrifugation, 200 μL of clear supernatant was transferred in 96 well plates and analyzed using LC-MS/MS.
Note: Brain samples were diluted (1-part of tissue: 2-part of buffer) and homogenized. The homogenate was submitted for bioanalysis and the concentrations (ng/mL) received were corrected with dilution factor (3×) and the final reported concentrations were represented in ng/g.
The plasma and brain concentration-time data of 358 and 001 were used for the pharmacokinetic analysis.

[3] = Hydrolysis Assay - Condition 2 (DI Water); assay type: physicochemical; details: 25° C., 0.5 mM
Procedure: 50 uL of compound (10 mM) in DMSO was diluted into 950 uL of DI water to a final concentration of 0.5 mM. The hydrolysis kinetics were conducted at 25° C. and measured by LCMS at a certain time interval.
(§3) The corresponding LCMS chromatogram were recorded and the conversions were calculated by integration of each peak.
(§4) • 1) LCMS spectra were obtained using Agilent 1200G1956A or SHIMADZU LCMS-2020. • Standard LCMS conditions were as follows (running time 1.55 minutes): • Acidic condition: Mobile Phase A: 0.0375% TFA in water (v/v). Mobile Phase B: 0.01875% TFA in acetonitrile (v/v); Column: Kinetex EVO C18 30*2.1 mm, 5 μm. • Basic condition: Mobile Phase A: 0.025% NH3·H2O in water (v/v). Mobile Phase B: Acetonitrile; Column: Kinetex EVO C18 2.1×30 mm, 5 μm. • 2) Conversion (%)=peak area 1/(peak area 1+peak area 2)*100%, peak area 1 is the integration of hydrolyzed product, peak area 2 is the integration of starting material.

[4] = Plasma Stability Assay (Example A2), human plasma; assay type: in vitro ADME; details: 37° C., prodrug remaining
Procedure: as §1

[5] = Hydrolysis Assay - Condition 1 (SGF); assay type: physicochemical; details: Condition 1: SGF with pepsin pH 1.5, 37° C., 0.5 mM
Procedure: 50 uL of compound (10 mM) in DMSO was diluted into 950 uL of Simulated Gastric Fluid (SGF) with pepsin (pH 1.5) to a final concentration of 0.5 mM. The hydrolysis kinetics were conducted at 37° C. and measured by LCMS at a certain time interval.
as §3, §4

[6] = Metabolic Stability in Human Hepatocytes; assay type: in vitro ADME; details: cryopreserved human hepatocytes, 5×10^5 viable cells/mL, 37° C.
Procedure: A 2.5 uL aliquot of 100 μM test compound was incubated with 247.5 uL of cryopreserved hepatocytes suspended in serum-free incubation medium at 5×10^5 viable cells/mL. The mixture was incubated at 37° C. and shaken at 500 rpm for the designated time points (0.5, 15, 30, 60, 90, or 120 min). At each time point, 25 μL aliquot of incubation mixture was transferred to 125 μL of cold acetonitrile containing internal standard, followed by centrifugation for 30 min at 3,220 g. 100 μL of supernatant was mixed with 100 μL of distilled water for analysis by LC-MS/MS. Peak areas were determined from extracted ion chromatograms and in vitro half-life (t1/2) was determined from the concentration vs time regression slope, in vitro t1/2=0.693/k. Conversion of the in vitro t1/2 (in min) into the in vitro intrinsic clearance (in vitro CLint, in μL/min/10^6 cells) is done using: in vitro CLint=kV/N.

[7] = Plasma Stability Assay (Example A3), human plasma; assay type: in vitro ADME; details: 10 μM, 37° C., prodrug remaining
Text: (§5) The data is represented in the table below.

[8] = Plasma Stability Assay (Example A3), rat plasma; assay type: in vitro ADME; details: 10 μM, 37° C., prodrug remaining
Text: as §5

[9] = assay type: in vivo, male C57BL/6 mice; details: 323 IV 2 mg/kg, mice; for CL: marked NR (not reportable)
Procedure: Total fifteen male mice were used in this study with n=3 mice/time point with sparse sampling study design. Animals were administered through intravenous route with solution formulation of 323 at 2 mg/kg dose.
as §2, with “The extraction procedure for plasma/brain samples and the spiked plasma/brain calibration standards were identical (PMSF Stabilized Plasma and Brain used for Preparation of calibration standards): A” for “A”
Brain samples were diluted (1-part of tissue: 2-part of buffer) and homogenized. The homogenate was submitted for bioanalysis and the concentrations (ng/mL) received were corrected with dilution factor (3×) and the final reported concentrations were represented in ng/g.
The plasma and brain concentration-time data of 323 and 001 were used for the pharmacokinetic analysis.

## COc1ccc([C@@]23CCC(OC(=O)OC(C)(C)C)=C[C@@H]2N(C)CC3)cc1OC [Compound 358, [(3aS,7aS)-3a-(3,4-dimethoxyphenyl)-1-methyl-3,4,5,7a-tetrahydro-2H-indol-6-yl]tert-butyl carbonate]
[1]; 0 min, 5 µM
  Metabolite (%): 58.8%
[1]; 15 min, 5 µM
  Metabolite (%): 65.4%
[1]; 30 min, 5 µM
  Metabolite (%): 73.2%
[1]; 60 min
  Metabolite (%): 76.9%
[1]; 120 min
  Metabolite (%): 61.8%
[1]; 240 min
  Metabolite (%): 62.2%
[2]
  brain concentrations quantifiable up to: ≤ 0.08 h
  plasma concentrations quantifiable up to: up to 0.25 h

## COc1ccc([C@@]23CCC(OP4(=O)OCC(C)(C)CO4)=C[C@@H]2N(C)CC3)cc1OC [Compound 323, 2-[[(3aS,7aS)-3a-(3,4-dimethoxyphenyl)-1-methyl-3,4,5,7a-tetrahydro-2H-indol-6-yl]oxy]-5,5-dimethyl-1,3,2λ5-dioxaphosphinane 2-oxide]
[1]; 0 min
  Prodrug (%): 100.0%
[1]; 15 min
  Prodrug (%): >99%
[1]; 30 min
  Prodrug (%): >99%
[1]; 60 min
  Prodrug (%): 94.1%
[1]; 120 min
  Prodrug (%): 71.9%
[1]; 240 min
  Prodrug (%): 50.3%
[3]; 1 min
  Conversion (%): 0%
[3]; 5 min
  Conversion (%): 0%
[3]; 30 min
  Conversion (%): 0%
[3]; 1 h
  Conversion (%): 0%
[3]; 4 h
  Conversion (%): 0%
[3]; 24 h
  Conversion (%): 0%
[4]; 0 min
  Prodrug (%): 100%
[4]; 15 min
  Prodrug (%): 76.6%
[4]; 30 min
  Prodrug (%): 64.5%
[4]; 60 min
  Prodrug (%): 38.1%
[4]; 120 min
  Prodrug (%): 12.8%
[4]; 240 min
  Prodrug (%): 1.60%
[5]; 1 min
  Conversion (%): 0%
[5]; 5 min
  Conversion (%): 0%
[5]; 30 min
  Conversion (%): 0%
[5]; 1 h
  Conversion (%): 0%
[5]; 4 h
  Conversion (%): 0%
[5]; 24 h
  Conversion (%): 0%
[6]
  t1/2: 327 min
[7]; 0 min
  Prodrug (%): 100.00%
[7]; 10 min
  Prodrug (%): 86.9%
[7]; 30 min
  Prodrug (%): 70.8%
[7]; 60 min
  Prodrug (%): 52.7%
[7]; 120 min
  Prodrug (%): 27.0%
[7]; 240 min
  Prodrug (%): 9.3%
[8]; 0 min
  Prodrug (%): 100.00%
[8]; 10 min
  Prodrug (%): >99%
[8]; 30 min
  Prodrug (%): 95.5%
[8]; 60 min
  Prodrug (%): 82.0%
[8]; 120 min
  Prodrug (%): 58.8%
[8]; 240 min
  Prodrug (%): 34.0%
[9]; 323
  Brain-Kp: 0.07
  brain concentrations quantifiable up to: ≤ 0.5 h
[9]; 323, 0.08 h
  Brain concentrations (mean): 22.15 ng/g
  Plasma concentrations (mean): 332.15 ng/mL
[9]; 323, 0.25 h
  Brain concentrations (mean): 8.97 ng/g
  Plasma concentrations (mean): 91.59 ng/mL
[9]; 323, 0.5 h
  Plasma concentrations (mean): 26.34 ng/mL
[9]; 323, 0.5 h, average of two values
  Brain concentrations (mean): 4.43^d ng/g
[9]; 323, 1 h
  Plasma concentrations (mean): 4.05 ng/mL
[9]; 323, 2 h, single value, excluded from data analysis
  Plasma concentrations (mean): 1.03^c ng/mL
[9]; 323 in Brain
  C0 (back extrapolated concentration): 33.89 ng/mL
  T1/2: 10.8 min
  Vss: 61.73 L/kg
  CL: NR (4350.55) mL/min/kg
[9]; 323 in Plasma
  AUClast: 96.00 ng·h/mL
  C0 (back extrapolated concentration): 609.01 ng/mL
  T1/2: 10.2 min
  Vss: 3.25 L/kg
  CL: NR (343.84) mL/min/kg
